Molecular target: BRD4 (BDI_K57-E168) (Homo sapiens, UniProt O60885)
Assay: TR-FRET bromodomain binding assay, BRD4 BDI

Question: With `Cc1cc(F)cc(C)c1Oc1ccc(C(C)(C)O)cc1-c1cn(C)c(=O)cc1O[C@H]1C[C@@H](C(C)(C)O)C1` [Example 94, 5-[2-(4-fluoro-2,6-dimethylphenoxy)-5-(2-hydroxypropan-2-yl)phenyl]-4-{[cis-3-(2-hydroxypropan-2-yl)cyclobutyl]oxy}-1-methylpyridin-2(1H)-one] as the compound, how does the Ki read?
Answer: 1.67 µM

Question: `CCNC(=O)[C@H]1C[C@@H](Oc2cc(=O)n(C)cc2-c2cc(C(C)(C)O)ccc2Oc2c(C)cc(F)cc2C)C1` [Example 95, cis-N-ethyl-3-({5-[2-(4-fluoro-2,6-dimethylphenoxy)-5-(2-hydroxypropan-2-yl)phenyl]-1-methyl-2-oxo-1,2-dihydropyridin-4-yl}oxy)cyclobutane-1-carboxamide] was tested. Which Ki did it give?
Answer: 1.58 µM

Question: With `Cc1cc(F)cc(C)c1Oc1ccc(C(C)(C)O)cc1-c1cn(C)c(=O)cc1O[C@H]1C[C@@H](C(=O)N2CCCC2)C1` [Example 96, 5-[2-(4-fluoro-2,6-dimethylphenoxy)-5-(2-hydroxypropan-2-yl)phenyl]-1-methyl-4-{[cis-3-(pyrrolidine-1-carbonyl)cyclobutyl]oxy}pyridin-2(1H)-one] as the compound, how does the Ki read?
Answer: 2.2 µM

Question: For `Cc1cc(F)cc(C)c1Oc1ccc(C(C)(C)O)cc1-c1cn(C)c(=O)cc1O[C@H]1C[C@@H](C(=O)O)C1` [Example 97, cis-3-({5-[2-(4-fluoro-2,6-dimethylphenoxy)-5-(2-hydroxypropan-2-yl)phenyl]-1-methyl-2-oxo-1,2-dihydropyridin-4-yl}oxy)cyclobutane-1-carboxylic acid], which Ki is on record?
Answer: 9.53 µM

Question: Which Ki does the source give for `CC(=O)N(N)[C@H]1CC[C@H](Oc2cc(=O)n(C)cc2-c2cc(C(C)(C)O)ccc2Oc2c(C)cc(F)cc2C)CC1` [Example 98, N-[trans-4-({5-[2-(4-fluoro-2,6-dimethylphenoxy)-5-(2-hydroxypropan-2-yl)phenyl]-1-methyl-2-oxo-1,2-dihydropyridin-4-yl}oxy)cyclohexyl]acetohydrazide] here?
Answer: 1.14 µM

Question: For `CC(=O)NN[C@H]1CC[C@@H](Oc2cc(=O)n(C)cc2-c2cc(C(C)(C)O)ccc2Oc2c(C)cc(F)cc2C)CC1` [Example 99, N′-[cis-4-({5-[2-(4-fluoro-2,6-dimethylphenoxy)-5-(2-hydroxypropan-2-yl)phenyl]-1-methyl-2-oxo-1,2-dihydropyridin-4-yl}oxy)cyclohexyl]acetohydrazide], which Ki is on record?
Answer: 10.4 µM

Question: With `CC(=O)N[C@H]1C[C@H](Oc2cc(=O)n(C)cc2-c2cc(C(C)(C)O)ccc2Oc2c(C)cc(F)cc2C)C1` [Example 100, N-[trans-3-({5-[2-(4-fluoro-2,6-dimethylphenoxy)-5-(2-hydroxypropan-2-yl)phenyl]-1-methyl-2-oxo-1,2-dihydropyridin-4-yl}oxy)cyclobutyl]acetamide] as the compound, how does the Ki read?
Answer: 0.719 µM

Question: How did the Ki turn out when `CNC(=O)[C@H]1CC[C@H](Oc2cc(=O)n(C)cc2-c2cc(C(C)(C)O)ccc2Oc2c(C)cc(F)cc2C)CC1` [Example 101, trans-4-({5-[2-(4-fluoro-2,6-dimethylphenoxy)-5-(2-hydroxypropan-2-yl)phenyl]-1-methyl-2-oxo-1,2-dihydropyridin-4-yl}oxy)-N-methylcyclohexane-1-carboxamide] was run?
Answer: 3.53 µM

Question: How did the Ki turn out when `Cc1cc(F)cc(C)c1Oc1ccc(C(C)(C)O)cc1-c1cn(C)c(=O)cc1O[C@H]1CC[C@H](C(N)=O)CC1` [Example 102, trans-4-({5-[2-(4-fluoro-2,6-dimethylphenoxy)-5-(2-hydroxypropan-2-yl)phenyl]-1-methyl-2-oxo-1,2-dihydropyridin-4-yl}oxy)cyclohexane-1-carboxamide] was run?
Answer: 4 µM

Question: Which Ki does the source give for `Cc1cc(F)cc(C)c1Oc1ccc(C(C)(C)O)cc1-c1cn(C)c(=O)cc1O[C@H]1CC[C@H](NC(=O)C2(CNC(=O)OC(C)(C)C)CC2)CC1` [Example 104, tert-butyl [(1-{[trans-4-({5-[2-(4-fluoro-2,6-dimethylphenoxy)-5-(2-hydroxypropan-2-yl)phenyl]-1-methyl-2-oxo-1,2-dihydropyridin-4-yl}oxy)cyclohexyl]carbamoyl}cyclopropyl)methyl]carbamate] here?
Answer: > 13 µM

Question: With `CC(=O)NN[C@H]1CC[C@H](Oc2cc(=O)n(C)cc2-c2cc(C(C)(C)O)ccc2Oc2c(C)cc(F)cc2C)CC1` [Example 105, N′-[trans-4-({5-[2-(4-fluoro-2,6-dimethylphenoxy)-5-(2-hydroxypropan-2-yl)phenyl]-1-methyl-2-oxo-1,2-dihydropyridin-4-yl}oxy)cyclohexyl]acetohydrazide] as the compound, how does the Ki read?
Answer: 2.16 µM

Question: Which Ki does the source give for `Cc1cc(F)cc(C)c1Oc1ccc(C(C)(C)O)cc1-c1cn(C)c(=O)cc1O[C@H]1CC[C@H](NNC(=O)OC(C)(C)C)CC1` [Example 106, tert-butyl 2-[trans-4-({5-[2-(4-fluoro-2,6-dimethylphenoxy)-5-(2-hydroxypropan-2-yl)phenyl]-1-methyl-2-oxo-1,2-dihydropyridin-4-yl}oxy)cyclohexyl]hydrazine-1-carboxylate] here?
Answer: 3.41 µM

Question: Which Ki does the source give for `Cc1cc(F)cc(C)c1Oc1ccc(C(C)(C)O)cc1-c1cn(C)c(=O)cc1O[C@H]1CC[C@@H](NNC(=O)OC(C)(C)C)CC1` [Example 107, tert-butyl 2-[cis-4-({5-[2-(4-fluoro-2,6-dimethylphenoxy)-5-(2-hydroxypropan-2-yl)phenyl]-1-methyl-2-oxo-1,2-dihydropyridin-4-yl}oxy)cyclohexyl]hydrazine-1-carboxylate] here?
Answer: 1.79 µM

Question: `Cc1cc(F)cc(C)c1Oc1ccc(C(C)(C)O)cc1-c1cn(C)c(=O)cc1O[C@H]1CC[C@H](C(=O)N(C)C)CC1` [Example 108, trans-4-({5-[2-(4-fluoro-2,6-dimethylphenoxy)-5-(2-hydroxypropan-2-yl)phenyl]-1-methyl-2-oxo-1,2-dihydropyridin-4-yl}oxy)-N,N-dimethylcyclohexane-1-carboxamide] was tested. Which Ki did it give?
Answer: 5.44 µM

Question: `Cc1cc(F)cc(C)c1Oc1ccc(C(C)(C)O)cc1-c1cn(C)c(=O)cc1O[C@H]1CC[C@H](N2NCCC2=O)CC1` [Example 109, 5-[2-(4-fluoro-2,6-dimethylphenoxy)-5-(2-hydroxypropan-2-yl)phenyl]-1-methyl-4-{[trans-4-(5-oxopyrazolidin-1-yl)cyclohexyl]oxy}pyridin-2(1H)-one] was tested. Which Ki did it give?
Answer: > 13 µM

Question: Which Ki does the source give for `Cc1cc(F)cc(C)c1Oc1ccc(C(C)(C)O)cc1-c1cn(C)c(=O)cc1O[C@H]1CC[C@H](NC(=O)C2(C(N)=O)CC2)CC1` [Example 111, N-[trans-4-({5-[2-(4-fluoro-2,6-dimethylphenoxy)-5-(2-hydroxypropan-2-yl)phenyl]-1-methyl-2-oxo-1,2-dihydropyridin-4-yl}oxy)cyclohexyl]cyclopropane-1,1-dicarboxamide] here?
Answer: 1.19 µM

Question: How did the Ki turn out when `CC(=O)N1CCC(=O)N1[C@H]1CC[C@H](Oc2cc(=O)n(C)cc2-c2cc(C(C)(C)O)ccc2Oc2c(C)cc(F)cc2C)CC1` [Example 112, 4-{[trans-4-(2-acetyl-5-oxopyrazolidin-1-yl)cyclohexyl]oxy}-5-[2-(4-fluoro-2,6-dimethylphenoxy)-5-(2-hydroxypropan-2-yl)phenyl]-1-methylpyridin-2(1H)-one] was run?
Answer: 4.86 µM

Question: `CNC(=O)N(C)Cc1ccc(Oc2c(C)cccc2C)c(-c2cn(C)c(=O)cc2O[C@H]2CC[C@H](NC(=O)C3(C)CC3)CC2)c1` [Example 113, N-[trans-4-({5-[2-(2,6-dimethylphenoxy)-5-{[methyl(methylcarbamoyl)amino]methyl}phenyl]-1-methyl-2-oxo-1,2-dihydropyridin-4-yl}oxy)cyclohexyl]-1-methylcyclopropane-1-carboxamide] was tested. Which Ki did it give?
Answer: 6.06 µM
